Assay results reported in US20060004197A1, “Sulfonamide-based compounds as protein tyrosine kinase inhibitors” (priority 2004, published 2006).

Each compound was assayed against T1, Recombinant human Src (Homo sapiens, UniProt P12931) (assay: Src tyrosine kinase activity, poly E4Y / 32P-ATP phosphorylation assay). Details: Table 3, Formula II compounds; NI = no inhibition at 100 μg/mL.
T1 construct: made in house; host or cells: baculovirus-insect cell system
Assay type: biochemical
Description: Recombinant human Src was expressed using the baculovirus-insect cell system and purified as published (Budde et al., 1993 and 2000).
The tyrosine kinase activity of Src, Csk and FGFr was determined using poly E4Y and ^32P-ATP. Briefly, enzymes were assayed in a reaction mixture consisting of 0.15 M EPPS-NaOH (pH 8.0) with 6 mM MgCl2, 0.2 mM γ^32P-ATP (0.2-0.4 mCi/μmol), 10% glycerol, 0.1% Triton X-100, and poly E4Y. Poly E4Y is a synthetic peptide whose phosphorylation is measured in this assay by the addition of the radioactively labeled phosphate from the ATP (Budde et al., 1995). […] When ATP was varied (0, 50, 100 and 250 μM), poly E4Y was kept constant at 150 μg/ml.

T1 sequence (P12931 whole entry): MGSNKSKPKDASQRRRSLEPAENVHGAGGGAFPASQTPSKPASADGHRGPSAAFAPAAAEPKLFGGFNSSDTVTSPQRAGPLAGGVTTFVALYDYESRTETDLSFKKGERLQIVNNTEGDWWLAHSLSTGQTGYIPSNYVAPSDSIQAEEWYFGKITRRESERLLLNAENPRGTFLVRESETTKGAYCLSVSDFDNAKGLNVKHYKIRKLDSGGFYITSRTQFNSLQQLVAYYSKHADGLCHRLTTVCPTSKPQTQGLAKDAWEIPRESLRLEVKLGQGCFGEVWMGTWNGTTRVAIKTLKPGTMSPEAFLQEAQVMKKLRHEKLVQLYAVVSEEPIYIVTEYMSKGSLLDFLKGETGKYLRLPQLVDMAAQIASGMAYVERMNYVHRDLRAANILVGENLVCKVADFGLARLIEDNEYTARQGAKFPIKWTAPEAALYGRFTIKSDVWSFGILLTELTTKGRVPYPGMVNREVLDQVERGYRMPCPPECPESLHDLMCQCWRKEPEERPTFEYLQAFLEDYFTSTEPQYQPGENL

Compared with `Cc1ccc(S(=O)(=O)Nc2ccc(C(=NOCc3ccccc3)c3ccccc3)cc2NS(=O)(=O)c2ccc(C)cc2)cc1` [Compound 22ii, N-[4-(benzyloxyimino-phenyl-methyl)-2-(4-toluenesulfonylamino)-phenyl]-4-toluenesulfonamide], `CCCCc1ccc(S(=O)(=O)Nc2ccc(Oc3ccc(OC)cc3)cc2NS(=O)(=O)c2ccc(C)cc2)cc1` [Compound 22x, 4-butyl-N-[4-(4-methoxy-phenoxy)-2-(4-toluenesulfonylamino)-phenyl]-benzenesulfonamide] is 1.8-fold lower in IC50: 64 µM for the first, 36 µM for the second.

Compared with `Cc1ccc(S(=O)(=O)Nc2ccc(NS(=O)(=O)c3c(C)noc3C)cc2NS(=O)(=O)c2ccc(C)cc2)cc1` [Compound 22j, 3,5-dimethyl-N-[3,4-bis-(4-toluenesulfonylamino)-phenyl]-isoxazole-4-sulfonamide], `COc1ccc(Oc2ccc(NS(=O)(=O)c3c(C)noc3C)c(NS(=O)(=O)c3ccc(C)cc3)c2)cc1` [Compound 22r, 3,5-dimethyl-N-[4-(4-methoxy-phenoxy)-2-(4-toluenesulfonylamino)-phenyl]-isoxazole-4-sulfonamide] is 13-fold higher in IC50: 25 µM for the first, 335 µM for the second. The first is the more potent here.

Compared with `COc1ccc(Oc2ccc(NS(=O)(=O)c3sc(NC(C)=O)nc3C)c(NS(=O)(=O)c3ccc(C)cc3)c2)cc1` [Compound 22q, N-{5-[4-(4-methoxy-phenoxy)-2-(4-toluenesulfonylamino)-phenylsulfamoyl]-4-methyl-thiazol-2-yl}-acetamide], `COc1ccc(Oc2ccc(NS(=O)(=O)c3cnc(Cl)c(Br)c3)c(NS(=O)(=O)c3ccc(C)cc3)c2)cc1` [Compound 22t, 5-bromo-6-chloro-N-[4-(4-methoxy-phenoxy)-2-(4-toluenesulfonylamino)-phenyl]-pyridine-3-sulfonamide] is 3.5-fold lower in IC50: 154 µM for the first, 44 µM for the second.

Going from `COc1ccc(Oc2ccc(NS(=O)(=O)c3ccc(Cl)c4nonc34)c(NS(=O)(=O)c3ccc(C)cc3)c2)cc1` [Compound 22u, 7-chloro-N-[4-(4-methoxy-phenoxy)-2-(4-toluenesulfonylamino)-phenyl]-benzo[1,2,5]oxadiazole-4-sulfonamide] to `COc1ccc(Oc2ccc(NS(=O)(=O)c3ccc(S(C)(=O)=O)cc3)c(NS(=O)(=O)c3ccc(C)cc3)c2)cc1` [Compound 22z, 4-methanesulfonyl-N-[4-(4-methoxy-phenoxy)-2-(4-toluenesulfonylamino)-phenyl]-benzenesulfonamide], the IC50 rises from 20 µM to 174 µM (8.7-fold). The first is the more potent here.

`COc1ccc(Oc2ccc(NS(=O)(=O)CCc3cccc4ccccc34)c(NS(=O)(=O)c3ccc(C)cc3)c2)cc1` [Compound 22y, N-[5-(4-methoxy-phenoxy)-2-(2-naphthalen-1-yl-ethanesulfonylamino)-phenyl]-4-toluenesulfonamide] showed an IC50 of 20 µM.

Same assay, conditions: Table 3; compound at 15 μg/mL

With `Cc1ccc(S(=O)(=O)Nc2ccc(CO)cc2NS(=O)(=O)c2ccc(C)cc2)cc1` [Compound 22l] the “% Inhibition at 15 μg/mL Src (%)” value was 5%.

Same assay, conditions: Table 3; compound at 15 μg/mL; read-out: % Inhibition at 15 μg/mL Src (%)

Going from `Cc1ccc(S(=O)(=O)Nc2ccc(C(=NO)c3ccccc3)cc2NS(=O)(=O)c2ccc(C)cc2)cc1` [Compound 22jj, N-[4-(hydroxyimino-phenyl-methyl)-2-(4-toluenesulfonylamino)-phenyl]-4-toluenesulfonamide] to `CON=C(c1ccccc1)c1ccc(NS(=O)(=O)c2ccc(C)cc2)c(NS(=O)(=O)c2ccc(C)cc2)c1` [Compound 22kk, N-[4-(methoxyimino-phenyl-methyl)-2-(4-toluenesulfonylamino)-phenyl]-4-toluenesulfonamide], the inhibition at 15 µg/mL rises from 16% to 23%.

Compared with `Cc1ccc(S(=O)(=O)Nc2cc(SCc3ccccc3Cl)ccc2NS(C)(=O)=O)cc1` [Compound 22ll, N-[5-(2-chloro-benzylsulfanyl)-2-methanesulfonylamino-phenyl]-4-toluenesulfonamide], `Cc1ccc(S(=O)(=O)Nc2ccc(SCc3ccccc3Cl)cc2NS(C)(=O)=O)cc1` [Compound 22nn, N-[4-(2-chloro-benzylsulfanyl)-2-methanesulfonylamino-phenyl]-4-toluenesulfonamide] is higher in inhibition at 15 µg/mL: 17% for the first, 21% for the second.

Compared with `COc1ccc(Oc2ccc(NS(=O)(=O)c3ccc(C)cc3)c(NS(C)(=O)=O)c2)cc1` [Compound 22m, N-[2-methanesulfonylamino-4-(4-methoxy-phenoxy)-phenyl]-4-toluenesulfonamide], `COc1ccc(Oc2ccc(NS(C)(=O)=O)c(NS(=O)(=O)c3ccc(C)cc3)c2)cc1` [Compound 22p, N-[2-methanesulfonylamino-5-(4-methoxy-phenoxy)-phenyl]-4-toluenesulfonamide] is lower in inhibition at 15 µg/mL: 22% for the first, 17% for the second.

First: COc1ccc(Oc2ccc(NS(=O)(=O)c3ccc(C)cc3)c(NS(=O)(=O)c3c(C)noc3C)c2)cc1 [Compound 22n, 3,5-dimethyl-N-[5-(4-methoxy-phenoxy)-2-(4-toluenesulfonylamino)-phenyl]-isoxazole-4-sulfonamide]
Second: COC(=O)c1c(S(=O)(=O)Nc2ccc(Oc3ccc(OC)cc3)cc2NS(=O)(=O)c2ccc(C)cc2)c(C)n(C)c1C [Compound 22w, methyl 4-[4-(4-methoxy-phenoxy)-2-(4-toluenesulfonylamino)-phenylsulfamoyl]-1,2,5-trimethyl-1H-pyrrole-3-carboxylate]
The inhibition at 15 µg/mL of the first is lower: 5% for the first, 6% for the second.

First: COc1ccc(Oc2ccc(NS(=O)(=O)c3ccc(C)cc3)c(NS(=O)(=O)c3cn(C)cn3)c2)cc1 [Compound 22o, N-[5-(4-methoxy-phenoxy)-2-(4-toluenesulfonylamino)-phenyl]-1-methyl-1H-imidazole-4-sulfonamide]
Second: COc1ccc(Oc2ccc(NS(=O)(=O)c3cn(C)cn3)c(NS(=O)(=O)c3ccc(C)cc3)c2)cc1 [Compound 22s, N-[4-(4-methoxy-phenoxy)-2-(4-toluenesulfonylamino)-phenyl]-1-methyl-1H-imidazole-4-sulfonamide]
The inhibition at 15 µg/mL of the first is lower: 0% for the first, 3% for the second.

Work on `COc1ccc(Oc2ccc(NS(=O)(=O)c3ccc(-c4ccon4)s3)c(NS(=O)(=O)c3ccc(C)cc3)c2)cc1` [Compound 22v, 5-isoxazol-3-yl-N-[4-(4-methoxy-phenoxy)-2-(4-toluenesulfonylamino)-phenyl]-thiophene-2-sulfonamide] yielded an inhibition at 15 µg/mL of 22%.

Same assay, conditions: Table 4, Formula III compounds; NI = no inhibition at 100 μg/mL

Compared with `COc1ccc(Oc2cc(NS(=O)(=O)c3ccc(C)cc3)c(NS(=O)(=O)c3ccc(C)cc3)cc2C(=O)O)cc1` [Compound 34, 2-(4-methoxy-phenoxy)-4,5-bis-(4-toluenesulfonylamino)-benzoic acid], `COc1ccc(Oc2cc(NS(=O)(=O)c3ccc(C)cc3)c(NS(=O)(=O)c3ccc(C)cc3)cc2C)cc1` [Compound 37, N-[4-(4-methoxy-phenoxy)-5-methyl-2-(4-toluenesulfonylamino)-phenyl]-4-toluenesulfonamide] is 1.5-fold higher in IC50: 77 µM for the first, 118 µM for the second. The first is the more potent here.

First: Cc1ccc(S(=O)(=O)Nc2cc(F)c(SCc3ccccc3Cl)cc2NS(=O)(=O)c2ccc(C)cc2)cc1 [Compound 38c, N-[4-(2-chloro-benzylsulfanyl)-5-fluoro-2-(4-toluenesulfonylamino)-phenyl]-4-toluenesulfonamide]
Second: Cc1ccc(S(=O)(=O)Nc2cc(F)c(S(=O)(=O)Cc3ccccc3Cl)cc2NS(=O)(=O)c2ccc(C)cc2)cc1 [Compound 38d, N-[4-(2-chloro-phenylmethanesulfonyl)-5-fluoro-2-(4-toluenesulfonylamino)-phenyl]-4-toluenesulfonamide]
The IC50 of the first is 5.9-fold lower: 2.2 µM for the first, 13 µM for the second. The first is the more potent here.

Same assay, conditions: Table 4; compound at 15 μg/mL; read-out: % Inhibition at 15 μg/mL Src (%)

Work on `COc1ccc(Oc2cc(NS(=O)(=O)c3ccc(C)cc3)c(NS(=O)(=O)c3ccc(C)cc3)cc2C(F)(F)F)cc1` [Compound 38b, N-[4-(4-methoxy-phenoxy)-2-(4-toluenesulfonylamino)-5-trifluoromethyl-phenyl]-4-toluenesulfonamide] yielded an inhibition at 15 µg/mL of 50%.

Same assay, conditions: compound at 15 μg/mL; read-out: % Inhibition at 15 μg/mL Src %

Going from `COc1ccc(Oc2ccc(N)c(NS(=O)(=O)c3ccc(C)cc3)c2)cc1` [Compound 71a, N-[2-amino-5-(4-methoxy-phenoxy)-phenyl]-4-toluenesulfonamide] to `COc1ccc(Oc2cc(N)c(NS(=O)(=O)c3ccc(C)cc3)cc2[N+](=O)[O-])cc1` [Compound 71cc, N-[2-amino-4-(4-methoxy-phenoxy)-5-nitro-phenyl]-4-toluenesulfonamide], the inhibition at 15 µg/mL rises from 13% to 15%.

Compared with `Cc1ccc(C(=O)Nc2cc(NCC3CCCCC3)c([N+](=O)[O-])cc2NC(=O)c2ccc(C)cc2)cc1` [Compound 71aa, N-[4-(cyclohexylmethyl-amino)-5-nitro-2-(4-toluoylamino)-phenyl]-4-toluamide], `Cc1ccc(C(=O)Nc2cc(NCc3cccc4ccccc34)c([N+](=O)[O-])cc2NC(=O)c2ccc(C)cc2)cc1` [Compound 71bb, N-{4-[(naphthalen-1-ylmethyl)-amino]-5-nitro-2-(4-toluoylamino)-phenyl}-4-toluamide] is higher in inhibition at 15 µg/mL: 0% for the first, 22% for the second.

First: COc1ccc(Oc2ccc(NC(=O)c3ccc(C#N)nc3)c(NS(=O)(=O)c3ccc(C)cc3)c2)cc1 [Compound 71b, 6-cyano-N-[4-(4-methoxy-phenoxy)-2-(4-toluenesulfonylamino)-phenyl]-nicotinamide]
Second: COc1ccc(Oc2ccc(NC(=O)c3ccc(C(F)(F)F)nc3)c(NS(=O)(=O)c3ccc(C)cc3)c2)cc1 [Compound 71c, N-[4-(4-methoxy-phenoxy)-2-(4-toluenesulfonylamino)-phenyl]-6-trifluoromethyl-nicotinamide]
The inhibition at 15 µg/mL of the first is lower: 0% for the first, 5% for the second.
